Laboratory results published in patent US9657002B2, “Oxindole derivatives carrying an oxetane substituent and use thereof for treating vassopressin-related diseases” (AbbVie Deutschland GmbH & Co. KG, priority 2013, dated 2017).

Experiments:
[1] = target: human vasopressin V1a receptor (Homo sapiens, UniProt P37288); assay: Vasopressin V1a receptor binding assay; details: selectivity quotient, human V1a vs human V1b
[2] = target: T1, human vasopressin V1b receptor (Homo sapiens, UniProt P47901); assay: biochemical
T1 sequence (P47901 1-424): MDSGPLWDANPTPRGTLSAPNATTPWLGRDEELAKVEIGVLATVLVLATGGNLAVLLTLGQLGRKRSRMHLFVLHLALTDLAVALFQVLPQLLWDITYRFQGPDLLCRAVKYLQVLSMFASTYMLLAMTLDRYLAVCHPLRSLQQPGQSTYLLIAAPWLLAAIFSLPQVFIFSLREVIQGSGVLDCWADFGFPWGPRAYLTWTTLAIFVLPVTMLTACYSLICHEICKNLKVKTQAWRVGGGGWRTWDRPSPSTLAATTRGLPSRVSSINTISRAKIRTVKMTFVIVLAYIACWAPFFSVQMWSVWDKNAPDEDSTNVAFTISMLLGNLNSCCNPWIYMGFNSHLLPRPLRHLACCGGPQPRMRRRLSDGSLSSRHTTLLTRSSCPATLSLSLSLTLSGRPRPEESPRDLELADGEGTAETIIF

Chain of human vasopressin V1a receptor (P37288 whole entry): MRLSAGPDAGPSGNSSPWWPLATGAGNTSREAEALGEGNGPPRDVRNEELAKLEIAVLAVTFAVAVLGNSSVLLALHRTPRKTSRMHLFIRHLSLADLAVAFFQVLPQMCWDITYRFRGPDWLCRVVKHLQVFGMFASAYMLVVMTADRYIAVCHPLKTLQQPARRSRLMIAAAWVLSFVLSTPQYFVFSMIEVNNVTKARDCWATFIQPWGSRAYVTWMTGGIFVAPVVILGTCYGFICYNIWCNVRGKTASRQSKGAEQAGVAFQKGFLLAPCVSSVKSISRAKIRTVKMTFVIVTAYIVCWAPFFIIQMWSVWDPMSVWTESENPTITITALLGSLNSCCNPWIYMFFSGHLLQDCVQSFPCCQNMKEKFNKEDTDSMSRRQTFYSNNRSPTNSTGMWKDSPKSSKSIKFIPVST

CCOc1ncccc1[C@]1(NC(=O)N2CCC(C3CCN(C4COC4)CC3)CC2)C(=O)N(S(=O)(=O)c2ccc(OC)cc2OC)c2ccc(C#N)cc21 [Example 11, (S)—N-(5-cyano-1-((2,4-dimethoxyphenyl)sulfonyl)-3-(2-ethoxypyridin-3-yl)-2-oxoindolin-3-yl)-1′-(oxetan-3-yl)-[4,4′-bipiperidine]-1-carboxamide]
Ki(h-V1a)/Ki(h-V1b) [1]: +++ (>75)
Ki [2]: < 1 nM

CCOc1ncccc1[C@]1(NC(=O)N2CCN(C3CCN(C4COC4)CC3)CC2)C(=O)N(S(=O)(=O)c2ccc(OC)cc2OC)c2cc(F)c(F)cc21 [Example 9, (S)—N-(1-((2,4-dimethoxyphenyl)sulfonyl)-3-(2-ethoxypyridin-3-yl)-5,6-difluoro-2-oxoindolin-3-yl)-4-(1-(oxetan-3-yl)piperidin-4-yl)piperazine-1-carboxamide]
Ki(h-V1a)/Ki(h-V1b) [1]: +++ (>75)

COc1ncccc1[C@]1(NC(=O)N2CCN(C3CCN(C4COC4)CC3)CC2)C(=O)N(S(=O)(=O)c2ccc(C#N)cc2)c2ccc(C#N)cc21 [Example 43, N-[(3S)-5-cyano-1-(4-cyanophenyl)sulfonyl-3-(2-methoxy-3-pyridyl)-2-oxo-indolin-3-yl]-4-[1-(oxetan-3-yl)-4-piperidyl]piperazine-1-carboxamide]
Ki(h-V1a)/Ki(h-V1b) [1]: + (10-<25)
Ki [2]: 10 to 100 nM

CCOc1ncccc1[C@]1(NC(=O)N2CCN(C3CCN(C4COC4)CC3)CC2)C(=O)N(S(=O)(=O)c2ccc(OC)cc2)c2ccc(C#N)cc21 [Example 24, N-[(3S)-5-cyano-3-(2-ethoxy-3-pyridyl)-1-(4-methoxyphenyl)sulfonyl-2-oxo-indolin-3-yl]-4-[1-(oxetan-3-yl)-4-piperidyl]piperazine-1-carboxamide]
Ki(h-V1a)/Ki(h-V1b) [1]: +++ (>75)
Ki [2]: 10 to 100 nM

COc1ccc(S(=O)(=O)N2C(=O)[C@@](NC(=O)N3CCC(C4CCN(C5COC5)CC4)CC3)(c3cccnc3OC)c3cc(C#N)ccc32)c(OC)c1 [Example 27, N-[(3S)-5-cyano-1-(2,4-dimethoxyphenyl)sulfonyl-3-(2-methoxy-3-pyridyl)-2-oxo-indolin-3-yl]-4-[1-(oxetan-3-yl)-4-piperidyl]piperidine-1-carboxamide]
Ki(h-V1a)/Ki(h-V1b) [1]: +++ (>75)
Ki [2]: < 1 nM

CCOc1ncccc1[C@]1(NC(=O)N2CCC(N3C[C@@H]4C[C@H]3CN4C3COC3)CC2)C(=O)N(S(=O)(=O)c2ccc(OC)cc2OC)c2ccc(C#N)cc21 [Example 17, N—((S)-5-cyano-1-((2,4-dimethoxyphenyl)sulfonyl)-3-(2-ethoxypyridin-3-yl)-2-oxoindolin-3-yl)-4-((1S,4S)-5-(oxetan-3-yl)-2,5-diazabicyclo[2.2.1]heptan-2-yl)piperidine-1-carboxamide]
Ki(h-V1a)/Ki(h-V1b) [1]: ++ (25-75)

CCOc1ncccc1[C@]1(NC(=O)N2CCN(C3CCN(C4COC4)CC3)CC2)C(=O)N(S(=O)(=O)c2cc(F)c(OC)cc2OC)c2ccc(C#N)cc21 [Example 8, (S)—N-(5-cyano-3-(2-ethoxypyridin-3-yl)-1-((5-fluoro-2,4-dimethoxyphenyl)sulfonyl)-2-oxoindolin-3-yl)-4-(1-(oxetan-3-yl)piperidin-4-yl)piperazine-1-carboxamide]
Ki(h-V1a)/Ki(h-V1b) [1]: +++ (>75)

COc1ccc(S(=O)(=O)N2C(=O)[C@@](NC(=O)N3CCC(C4CCN(C5COC5)CC4)CC3)(c3cc(OC)ccc3OC)c3cc(C#N)ccc32)c(OC)c1 [Example 55, (S)—N-(5-cyano-3-(2,5-dimethoxyphenyl)-1-((2,4-dimethoxyphenyl)sulfonyl)-2-oxoindolin-3-yl)-1′-(oxetan-3-yl)-[4,4′-bipiperidine]-1-carboxamide]
Ki(h-V1a)/Ki(h-V1b) [1]: + (10-<25)
Ki [2]: < 1 nM

CCOc1ncccc1[C@]1(NC(=O)N2CCN(C3CCN(C4COC4)CC3)CC2)C(=O)N(S(=O)(=O)c2ccc(F)cc2OC)c2ccc(C#N)cc21 [Example 26, N-[(3S)-5-cyano-3-(2-ethoxy-3-pyridyl)-1-(4-fluoro-2-methoxy-phenyl)sulfonyl-2-oxo-indolin-3-yl]-4-[1-(oxetan-3-yl)-4-piperidyl]piperazine-1-carboxamide]
Ki(h-V1a)/Ki(h-V1b) [1]: +++ (>75)
Ki [2]: 1 to 10 nM

CCOc1ncccc1[C@]1(NC(=O)N2CCN(C3CCN(C4COC4)CC3)CC2)C(=O)N(S(=O)(=O)c2ccc(OC)cc2F)c2ccc(C#N)cc21 [Example 6, (S)—N-(5-cyano-3-(2-ethoxypyridin-3-yl)-1-((2-fluoro-4-methoxyphenyl)sulfonyl)-2-oxoindolin-3-yl)-4-(1-(oxetan-3-yl)piperidin-4-yl)piperazine-1-carboxamide]
Ki(h-V1a)/Ki(h-V1b) [1]: +++ (>75)

CCOc1ncccc1[C@]1(NC(=O)N2CCN(C3CCN(C4(C)COC4)CC3)CC2)C(=O)N(S(=O)(=O)c2ccc(OC)cc2OC)c2ccc(C#N)cc21 [Example 51, (S)—N-(5-cyano-1-((2,4-dimethoxyphenyl)sulfonyl)-3-(2-ethoxypyridin-3-yl)-2-oxoindolin-3-yl)-4-(1-(3-methyloxetan-3-yl)piperidin-4-yl)piperazine-1-carboxamide]
Ki(h-V1a)/Ki(h-V1b) [1]: +++ (>75)
Ki [2]: 1 to 10 nM

COc1cc(F)ccc1S(=O)(=O)N1C(=O)[C@@](NC(=O)N2CCC(C3CCN(C4COC4)CC3)CC2)(c2cccnc2OC)c2cc(C#N)ccc21 [Example 37, N-[(3S)-5-cyano-1-(4-fluoro-2-methoxy-phenyl)sulfonyl-3-(2-methoxy-3-pyridyl)-2-oxo-indolin-3-yl]-4-[1-(oxetan-3-yl)-4-piperidyl]piperidine-1-carboxamide]
Ki(h-V1a)/Ki(h-V1b) [1]: +++ (>75)
Ki [2]: < 1 nM

COc1ccccc1S(=O)(=O)N1C(=O)[C@@](NC(=O)N2CCC(C3CCN(C4COC4)CC3)CC2)(c2cccnc2OC)c2cc(C#N)ccc21 [Example 49, (S)—N-(5-cyano-1-((2-methoxyphenyl)sulfonyl)-3-(2-methoxypyridin-3-yl)-2-oxoindolin-3-yl)-1′-(oxetan-3-yl)-[4,4′-bipiperidine]-1-carboxamide]
Ki(h-V1a)/Ki(h-V1b) [1]: +++ (>75)
Ki [2]: 1 to 10 nM

COc1ccc(S(=O)(=O)N2C(=O)C(NC(=O)N3CCN(C4CCN(C5COC5)CC4)CC3)(c3cccnc3OC)c3cc(C#N)ccc32)c(OC)c1 (centres unmarked) [Example 15, N-(5-cyano-1-((2,4-dimethoxyphenyl)sulfonyl)-3-(2-methoxypyridin-3-yl)-2-oxoindolin-3-yl)-4-(1-(oxetan-3-yl)piperidin-4-yl)piperazine-1-carboxamide]
Ki(h-V1a)/Ki(h-V1b) [1]: +++ (>75)

CCOc1ncccc1[C@]1(NC(=O)N2CCN(C3CCN(C4COC4)CC3)CC2)C(=O)N(S(=O)(=O)c2ccc(OC)cc2OC)c2ccc(C#N)cc21 [Example 1, (S)—N-(5-cyano-1-((2,4-dimethoxyphenyl)sulfonyl)-3-(2-ethoxypyridin-3-yl)-2-oxoindolin-3-yl)-4-(1-(oxetan-3-yl)piperidin-4-yl)piperazine-1-carboxamide]
Ki(h-V1a)/Ki(h-V1b) [1]: +++ (>75)

CCOc1ncccc1[C@]1(NC(=O)N2CCN(C3CCN(C4COC4)CC3)CC2)C(=O)N(S(=O)(=O)c2ccc(OC)cc2OC)c2ccc(Cl)cc21 [Example 10, (S)—N-(5-chloro-1-((2,4-dimethoxyphenyl)sulfonyl)-3-(2-ethoxypyridin-3-yl)-2-oxoindolin-3-yl)-4-(1-(oxetan-3-yl)piperidin-4-yl)piperazine-1-carboxamide]
Ki(h-V1a)/Ki(h-V1b) [1]: +++ (>75)

CCOc1ncccc1[C@]1(NC(=O)N2CCN(C3CCN(C4COC4)CC3)CC2)C(=O)N(S(=O)(=O)c2ccc(OC)c(C)c2C)c2ccc(C#N)cc21 [Example 18, (S)—N-(5-cyano-3-(2-ethoxypyridin-3-yl)-1-((4-methoxy-2,3-dimethylphenyl)sulfonyl)-2-oxoindolin-3-yl)-4-(1-(oxetan-3-yl)piperidin-4-yl)piperazine-1-carboxamide]
Ki(h-V1a)/Ki(h-V1b) [1]: + (10-<25)

COc1ccc(S(=O)(=O)N2C(=O)[C@@](NC(=O)N3CCC(C4CCN(C5COC5)CC4)CC3)(c3cccnc3OC)c3cc(C#N)ccc32)nc1 [Example 39, N-[(3S)-5-cyano-3-(2-methoxy-3-pyridyl)-1-[(5-methoxy-2-pyridyl)sulfonyl]-2-oxo-indolin-3-yl]-4-[1-(oxetan-3-yl)-4-piperidyl]piperidine-1-carboxamide]
Ki [2]: < 1 nM

CCOc1ncccc1[C@]1(NC(=O)N2CCC(N3CCN(C4COC4)CC3)CC2)C(=O)N(S(=O)(=O)c2ccc(C#N)cc2)c2ccc(C#N)cc21 [Example 12, (S)—N-(5-cyano-1-((4-cyanophenyl)sulfonyl)-3-(2-ethoxypyridin-3-yl)-2-oxoindolin-3-yl)-4-(4-(oxetan-3-yl)piperazin-1-yl)piperidine-1-carboxamide]
Ki(h-V1a)/Ki(h-V1b) [1]: ++ (25-75)

CCOc1ncccc1[C@]1(NC(=O)N2CCC(N3CCN(C4COC4)CC3)CC2)C(=O)N(S(=O)(=O)c2ccc(OC)cc2)c2ccc(C#N)cc21 [Example 13, (S)—N-(5-cyano-3-(2-ethoxypyridin-3-yl)-1-((4-methoxyphenyl)sulfonyl)-2-oxoindolin-3-yl)-4-(4-(oxetan-3-yl)piperazin-1-yl)piperidine-1-carboxamide]
Ki(h-V1a)/Ki(h-V1b) [1]: +++ (>75)
